Results published in patent US6509369B2, “Anti-inflammatory compounds” (Ortho-McNeil Pharmaceutical, Inc., priority 1997, dated 2003).

Test system: oxazolone-induced ear swelling (MOCH) in albino male CD-1 mice
Experiment: mouse oxazolone-induced contact hypersensitization (MOCH) ear swelling
Assay type: in vivo
Design: % Inhibition MOCH: concentration or dose not given beside the values
Conditions: for % Inhibition MOCH: mouse, in vivo; for Oxazolone Ear Swelling (MOCH) % inhibition vs. Vehicle at 1 mg: topical to mouse ear, one hour after oxazolone challenge, ear biopsy weight at 24 hours
Description: Several triphenylpropanamide compounds of this invention, having varying affinities for the human glucocorticoid receptor, were tested for topical antiinflammatory activity in mouse ear inflammation models. […] Compounds having receptor affinities closer to hydrocortisone were as nearly active as hydrocortisone in suppressing mouse oxazolone-induced contact hypersensitization (MOCH) and phorbol ester-induced ear edema. The in vivo studies of this example were conducted as follows.
In determining the MOCH using the compounds of this invention, albino male CD-1 mice, 7-9 weeks old were induced on the shaved abdomen with 50 μl of 3% oxazolone in acetone/corn oil (Day 0). On Day 5, a 20 μl volume of 2% oxazolone in acetone was applied to the dorsal left ear of the mouse . Compounds (made in ethanol/propylene glycol, 70:30) were applied to the left ear in 20 μl volume, one hour after oxazolone challenge. The right ear was not treated. The mice were sacrificed by carbon dioxide inhalation 24 hours after oxazolone challenge, the left and right ears were removed and a 7 mm biopsy was removed from each ear and weighed. The difference in biopsy weights between the right and left ears was calculated. Antiinflammatory effects of compounds were evident as an inhibition of the increase in ear weight.

| Structure (SMILES) | % Inhibition MOCH | also measured |
| --- | --- | --- |
| COc1cc(CC(=O)NCC(c2ccc3c(c2)OCO3)C(c2ccccc2)c2ccccc2)cc(OC)c1 (stereo not shown) [Compound 108] | 38% |  |
| O=C(NCC(c1ccc2c(c1)OCO2)C(c1ccccc1)c1ccccc1)c1cc(C(F)(F)F)cc(C(F)(F)F)c1 (stereo not shown) [Compound 120] | 27% |  |
| O=C(Cc1ccc(Cl)cc1)NCC(c1ccc2c(c1)OCO2)C(c1ccccc1)c1ccccc1 (stereo not shown) [Compound 98] |  | Oxazolone Ear Swelling (MOCH) % inhibition vs. Vehicle at 1 mg: 85%; topical antiinflammatory activity in the oxazolone model (in words) (topical, mouse ear): equiactive with hydrocortisone |
| O=C(NCC(c1ccc2c(c1)OCO2)C(c1ccccc1)c1ccccc1)c1ccc(F)cc1F (stereo not shown) [Compound 127] | 61% |  |
| O=C(NCC(c1ccc(C(F)(F)F)cc1)C(c1ccccc1)c1ccccc1)c1cccs1 (stereo not shown) [Compound 136] | 38% |  |
| O=C(NCC(c1ccccc1)C(c1ccccc1)c1ccccc1)Nc1ccccc1 (stereo not shown) [Compound 50] |  | Oxazolone Ear Swelling (MOCH) % inhibition vs. Vehicle at 1 mg: 30% |
| O=C(CCc1ccccc1)NCC(c1ccc2c(c1)OCO2)C(c1ccccc1)c1ccccc1 (stereo not shown) [Compound 124] | 35% |  |
| O=C(Cc1ccccn1)NCC(c1ccc2c(c1)OCO2)C(c1ccccc1)c1ccccc1 (stereo not shown) [Compound 102] | 51% |  |
| COc1ccccc1C(=O)NCC(c1ccc2c(c1)OCO2)C(c1ccccc1)c1ccccc1 (stereo not shown) [Compound 118] | 38% |  |
| N#Cc1cccc(C(=O)NCC(c2ccc3c(c2)OCO3)C(c2ccccc2)c2ccccc2)c1 (stereo not shown) [Compound 123] | 51% |  |
| O=C(NCC(c1ccc2c(c1)OCO2)C(c1ccccc1)c1ccccc1)c1cc2ccccc2[nH]1 (stereo not shown) [Compound 119] | 31% |  |
| O=C(CSc1ccccc1)NCC(c1ccc2c(c1)OCO2)C(c1ccccc1)c1ccccc1 (stereo not shown) [Compound 114] | 41% |  |
| O=C(Cc1ccc(Cl)c(Cl)c1)NCC(c1ccc(C(F)(F)F)cc1)C(c1ccccc1)c1ccccc1 (stereo not shown) [Compound 138] | 33% |  |
| O=C(Cc1cccs1)NCC(c1ccc(C(F)(F)F)cc1)C(c1ccccc1)c1ccccc1 (stereo not shown) [Compound 135] | 31% |  |
| O=C(NCC(c1ccc2c(c1)OCO2)C(c1ccccc1)c1ccccc1)c1cccc([N+](=O)[O-])c1 (stereo not shown) [Compound 121] | 10% |  |
| O=C(Cc1cc(C(F)(F)F)cc(C(F)(F)F)c1)NCC(c1ccc2c(c1)OCO2)C(c1ccccc1)c1ccccc1 (stereo not shown) [Compound 104] | 52% |  |
| O=C(Cc1ccccc1)NCC(c1ccc(C(F)(F)F)cc1)C(c1ccccc1)c1ccccc1 (stereo not shown) [Compound 141] | 66% |  |
| CCCCOc1ccc(CC(=O)NCC(c2ccc3c(c2)OCO3)C(c2ccccc2)c2ccccc2)cc1 (stereo not shown) [Compound 106] | 52% |  |

| Structure (SMILES) | % Inhibition MOCH | also measured |
| --- | --- | --- |
| Cc1ccccc1C(=O)NCC(c1ccc2c(c1)OCO2)C(c1ccccc1)c1ccccc1 (stereo not shown) [Compound 133] | 46% |  |
| O=C(Cc1ccc([N+](=O)[O-])cc1)NCC(c1ccc2c(c1)OCO2)C(c1ccccc1)c1ccccc1 (stereo not shown) [Compound 105] | 24% |  |
| Cc1ccc(C(=O)NCC(c2ccc3c(c2)OCO3)C(c2ccccc2)c2ccccc2)cc1 (stereo not shown) [Compound 126] | 46% |  |
| O=C(Cc1ccccc1Cl)NCC(c1ccc(C(F)(F)F)cc1)C(c1ccccc1)c1ccccc1 (stereo not shown) [Compound 146] | 39% |  |
| COc1cc(Cl)ccc1C(=O)NCC(c1ccc(C(F)(F)F)cc1)C(c1ccccc1)c1ccccc1 (stereo not shown) [Compound 144] | 33% |  |
| O=C(Cc1ccc(F)cc1F)NCC(c1ccc(C(F)(F)F)cc1)C(c1ccccc1)c1ccccc1 (stereo not shown) [Compound 147] | 55% |  |
| O=C(NCC(c1ccc(C(F)(F)F)cc1)C(c1ccccc1)c1ccccc1)c1ccc(Cl)cc1Cl (stereo not shown) [Compound 139] | 42% |  |
| O=C(NCC(c1ccc2c(c1)OCO2)C(c1ccccc1)c1ccccc1)c1ccc(F)cc1 (stereo not shown) [Compound 128] | 54% |  |
| O=C(NCC(c1ccc2c(c1)OCO2)C(c1ccccc1)c1ccccc1)c1ccsc1 (stereo not shown) [Compound 115] | 28% |  |
| O=C(NCC(c1ccc2c(c1)OCO2)C(c1ccccc1)c1ccccc1)c1cccs1 (stereo not shown) [Compound 116] | 62% |  |
| CC(C)(C)c1ccc(C(=O)NCC(c2ccc3c(c2)OCO3)C(c2ccccc2)c2ccccc2)cc1 (stereo not shown) [Compound 125] | 31% |  |
| COc1ccccc1CC(=O)NCC(c1ccc2c(c1)OCO2)C(c1ccccc1)c1ccccc1 (stereo not shown) [Compound 107] | 28% |  |
| O=C(Cc1cc2cc(Cl)ccc2s1)NCC(c1ccc(C(F)(F)F)cc1)C(c1ccccc1)c1ccccc1 (stereo not shown) [Compound 145] | 54% |  |
| O=C(NCC(c1ccc2c(c1)OCO2)C(c1ccccc1)c1ccccc1)c1ccccc1 (stereo not shown) [Compound 117] | 28% |  |
| O=C(Cc1ccc(F)cc1F)NCC(c1ccc2c(c1)OCO2)C(c1ccccc1)c1ccccc1 (stereo not shown) [Compound 111] | 60% |  |
| O=C(NCC(c1ccc2c(c1)OCO2)C(c1ccccc1)c1ccccc1)c1cc(Cl)cc(Cl)c1 (stereo not shown) [Compound 131] | 18% |  |
| O=C(Cc1cc2cc(Cl)ccc2s1)NCC(c1ccc2c(c1)OCO2)C(c1ccccc1)c1ccccc1 (stereo not shown) [Compound 101] | 26% |  |
| O=C(Cc1ccccc1)NCC(c1ccc2c(c1)OCO2)C(c1ccccc1)c1ccccc1 (stereo not shown) [Compound 109] | 22% |  |
